Data: US10736907B2, “Use of sugar-alcohols in tibolone compositions” (Mithra Pharmaceuticals S.A., priority 2016, dated 2020)
Like-named read-outs stand apart in the source and are kept apart here.

Assay: Tibolone impurities (A, B, C, total except C) in tablets by HPLC just after production and during storage (stability)
Format: physicochemical
Description: Tibolone tablets were manufactured by a conventional direct compression process. Briefly, the raw materials were weighed, sieved and homogenized. Following homogenization, the mixture was compressed into tablets. Just after production (i.e. at t=0), the tablets were analyzed for tibolone impurities by a chromatography (HPLC) method that allows a suitable separation between the peaks of impurities A, B and C (Tibolone degradation products described in the current European Pharmacopeia Monograph 1739) under the following conditions: • Equipment: HPLC system • Pre-column: Universal RP, EC 4/3 • Stationary phase: Nucleodur 100-3 C18ec Particulars' diameter: 3 μm • Length: 150 mm • Internal diameter: 4.6 mm • Mobile phase: • Solvent A: water for chromatography R • Solvent B: Acetonitrile for chromatography R • Gradient program: […]
The tablets were packed into PVC/Aluminium blisters and stored either 1) at a temperature of 25° C. and a relative humidity of 60% (long term stability conditions for Zone II), 2) at a temperature of 40° C. and a relative humidity of 75% (accelerated stability conditions), or 3) at ambient conditions (laboratory conditions, less than 25° C., no humidity control). After 1, 2, 3 and/or 6 months of storage (up to 18 months for batches #2 and #3), the tablets were analyzed for tibolone impurities.

stabilizing effect on tibolone in the tablets (in words) | Structure (SMILES) | stabilizing effect on tibolone in the tablets (in words) (excipient added to tibolone tablets)
 | O=C(O)CN(CCN(CC(=O)O)CC(=O)O)CC(=O)O [EDTA] | does not further stabilize
additional stabilizing effect | CCCCCCCCCCCCCCCC(=O)OC[C@H](O)[C@H]1OC(=O)C(O)=C1O [ascorbyl palmitate] | 
